Laboratory results published in patent US20160144031A1, “Photo-Responsive Compounds” (priority 2013, published 2016).

Tests used:
[1] = Photolysis rate comparison: Xe flash lamp, 546±10 nm, conversion to hydroxocobalamin monitored at 350 nm; assay type: physicochemical; conditions: 10 μM
Method: General procedure: Photolysis was performed using an Oriel Xe flash lamp (800 mJ, 62 Hz) with a selective bandpass filter for 546±10 nm. The conversion of alkylcobalamin to hydroxocoabalmin was determined by monitoring the absorption of the mixture at 350 nm using Perkin Elemer Lambda 2 UV/Vis spectrophotometer. (Taylor, R. T.; Smucker, L.; Hanna, M. L.; Gill, J. Arch. Biochem. Biophys. 1973, 156, 521-533.)

[2] = Photolysis (Xe flash lamp, bandpass filters) and dark storage assessed by UV-Vis and LC/MS; assay type: physicochemical; conditions: for photolysis at 546 nm (LC/MS): 546±10 nm (20 min); for photolysis at 546 nm (LC/MS) / photolysis at 646 nm (UV-Vis, LC/MS) / photolysis at 730 nm (LC/MS) / photolysis at 780 nm (LC/MS): 10 μM; for photolysis at 646 nm (UV-Vis, LC/MS): 646±10 nm (20 min); for photolysis at 730 nm (LC/MS): 730±10 nm (150 min); for photolysis at 780 nm (LC/MS): 780±10 nm (3 h)
Method: […] The conversion of alkylcobalamin to hydroxocoabalmin was determined by monitoring the absorption of the mixture at 350 nm using Perkin Elemer Lambda 2 UV/Vis spectrophotometer. (Taylor, R. T.; Smucker, L.; Hanna, M. L.; Gill, J. Arch. Biochem. Biophys. 1973, 156, 521-533.)
[…] The resulting sample (100 μL) was analyzed by LC/MS using a linear gradient binary solvent system (solvent A: 0.1% formic acid/H2O; solvent B: 0.1% formic acid/CH3CN) with a ratio of A:B that varied from 97:3 (0-5 min) to 3:97 (5-18 min).

[3] = tested on: HeLa cells; test: Treatment of HeLa cells with colchicine (tubulin staining); assay type: cell-based; conditions: increasing colchicine
Method: Treatment of HeLa cells with colchicine. […] Cells are washed 2×1 mL with PBS and blocked for 1 h in 5% donkey serum. […] Metamorph software is employed for imaging analysis.

[4] = administered by IV; cited from earlier work

Compound	photolysis at 546 nm (LC/MS) [2]	photolysis at 646 nm (UV-Vis, LC/MS) [2]	photolysis at 730 nm (LC/MS) [2]	photolysis at 780 nm (LC/MS) [2]	also measured
C/C1=C2/[N-][C@H]([C@H](CC(N)=O)[C@@]2(C)CCC(=O)NC[C@H](C)OP(=O)([O-])O[C@H]2[C@@H](O)[C@@H](n3cnc4cc(C)c(C)cc43)O[C@@H]2CO)[C@]2(C)N=C(/C(C)=C3N=C(/C=C4N=C1[C@@H](CCC(N)=O)C\4(C)C)[C@@H](CCC(N)=O)[C@]\3(C)CC(N)=O)[C@@H](CCC(N)=O)[C@]2(C)CC(N)=O.[CH3-].[Co+3] [MeCbl, methylcobalamin]	–	–	–	–	photolysis rate [1]: 31700 ± 3300 M⁻¹ s⁻¹
Coenzyme B12-Dylight® 800 Conjugate [AdoCbl-4]	generated the expected adenosine products	resistant to photolysis	Partial photolysis	generated the expected adenosine products	–
COc1cc2c(c(OC)c1OC)-c1ccc(OC)c(=O)cc1[C@@H](NC(C)=O)CC2 [colchicine]	–	–	–	–	effect on tubulin networks [3]: tubulin networks become disrupted
C/C1=C2/[N-]C([C@H](CC(N)=O)[C@@]2(C)CCC(=O)NC[C@@H](C)OP(=O)([O-])O[C@H]2[C@@H](O)[C@@H](n3cnc4cc(C)c(C)cc43)O[C@@H]2CO)[C@]2(C)N=C(/C(C)=C3N=C(/C=C4N=C1[C@@H](CCC(N)=O)C\4(C)C)[C@@H](CCC(N)=O)[C@]\3(C)CC(N)=O)[C@@H](CCC(N)=O)[C@]2(C)CC(N)=O.[CH2-][C@H]1O[C@@H](n2cnc3c(N)ncnc32)[C@@H](O)[C@@H]1O.[Co+3] [AdoCbl, Coenzyme B12, reference compound]	produces these products	–	–	–	photolysis at wavelengths beyond 600 nm (LC/MS) [2]: resistant to photolysis; rate of photolysis at 546 nm [1]: 1.7±0.2 μM^−1/m
Coenzyme B12-SulfoCy5 Conjugate [AdoCbl-2]	produced adenosine products	produced adenosine products	unaffected	unaffected	–
αMSH: 13 amino acid α-melanocyte stimulating hormone	–	–	–	–	half life [4]: only a few minutes
coenzyme B12-TAMRA conjugate [AdoCbl-1]	produces these products	–	–	–	photolysis at wavelengths beyond 600 nm (LC/MS) [2]: resistant to photolysis; rate of photolysis at 546 nm [1]: 2.9±0.3 μM^−1/m
Coenzyme B12-ATTO 725 Conjugate [AdoCbl-3]	complete photolysis	partial photolysis	complete photolysis	not at 780 nm	–
